For one data set, the system named is apple scab. The note with it: background statement, cited from earlier work.
For data set [1], the system named is apple scab caused by Venturia inaequalis. The data set is described as follows: Example 1: bark spray on apple trees, apple leaf scab incidence, severity and % control. The following applies: for Apple Leaf scab incidence / Apple leaf % control / Apple leaf scab severity: bark spray. The class given is in vivo. The arrangement: Apple leaf scab severity: scale not given here; Apple Leaf scab incidence: unit not given here. The text has this:
(§1) Applicant conducted the following study to determine the effect of a 3-(difluoromethyl)-1-methyl-N-[(3R)-1,1,3-trimethyl-2,3-dihydroinden-4-yl]pyrazole-4-carboxamide bark spray application on common fungal infections in apple and pear trees. Applications were made in late February with a CO2 charged, single-tip hand sprayer. Treatments were applied as a spray to the lower 3 to 4 feet of the tree trunks all the way around the tree. The tree trunks were sprayed until they were wet. If the treatments included a surfactant (see tables), then the treatments included a surfactant at a rate of 3 fl oz/gallon of the spray mix. The apple trees were at bed swell stage. The apple tree trunks were about 5 to 8 inches in diameter. The pear trees were at mid-petal fall with some green leaves emerging. The pear tree trunks were about 10 to 12 inches in diameter. The following rates in grams per active/cm diameter tree trunk are based on an average trunk diameter. A large amount of apple scab naturally developed during this growing season in this location. The effects of the treatments on apple leaf phytotoxicity, apple leaf apple scab incidence, apple leaf scab severity, and apple leaf percent control were observed 113 and 169 days after treatment (“DAT”). The results of this study are below in Tables 1 and 2.

In data set [2] the test system is apple trees. The data set is described as follows: Example 1: apple leaf phytotoxicity after bark spray. The class given is in vivo. More on the design: scale not given here.
Excerpt: as §1

Another data set relates to Fabraea leaf spot. In words: Example 1: bark spray on pear trees, Fabraea leaf spot control. The class given is in vivo. The note with it: bark spray at mid-petal fall, at this rate and time of development.
Excerpt: as §1

Another data set relates to Alternaria leaf spot. In words: Example 1: bark spray on pear trees, Alternaria leaf spot control. Type of data set: in vivo. The note with it: bark spray at mid-petal fall, at this rate and time of development.
Excerpt: as §1

The nature of another data set: Water solubility. The class given is physicochemical.
The subject of data set [3] is apple scab caused by Venturia inaequalis. In words: Example 2: apple tree trunk treatment, leaf and fruit pest incidence and severity. Type of data set: in vivo. The source says: (§2) In this study, the 3-(difluoromethyl)-1-methyl-N-[(3R)-1,1,3-trimethyl-2,3-dihydroinden-4-yl]pyrazole-4-carboxamide treatment was applied at the time of bud swell in mid March on apple tree trunks (treatment 5). The result of this treatment was compared to metconazole treatments applied when the apple trees were dormant (treatments 2 and 3), at the time of bud swell (treatment 4), and a foliar spray applied after petal fall (treatment 6). The control treatment (treatment 1) was applied during bud swell, as well. Four trees were subjected to each treatment.

For data set [4], the system named is apple trees. The data set is described as follows: Example 2: phytotoxicity on apple trees. The class given is in vivo.
Excerpt: as §2

Where [5] appears, read: 113 DAT, 1.16 grams active/cm trunk diameter + 2.3% V/V surfactant.
Setting [6] is: 169 DAT, 1.16 grams active/cm trunk diameter + 2.3% V/V surfactant.
Setting [7] is: 113 DAT, 0.003 grams active/cm trunk diameter + 2.3% V/V surfactant.
[8] abbreviates: 113 DAT, 0.03 grams active/cm trunk diameter + 2.3% V/V surfactant.
[9] abbreviates: 169 DAT, 0.003 grams active/cm trunk diameter + 2.3% V/V surfactant.
[10] abbreviates: 169 DAT, 0.03 grams active/cm trunk diameter + 2.3% V/V surfactant.
Setting [11] is: first fruit pest, treatment 5, applied at the time of bud swell in mid March on apple tree trunks, 0.003 grams active/cm trunk diameter + 2.3% V/V surfactant.
The mark [12] stands for this setting: treatment 5, applied at the time of bud swell in mid March on apple tree trunks, 0.003 grams active/cm trunk diameter + 2.3% V/V surfactant.
Setting [13] is: 113 DAT, 0.86 grams active/cm trunk diameter + 2.3% V/V surfactant.
The mark [14] stands for this setting: 113 DAT, 1.72 grams active/cm trunk diameter + 2.3% V/V surfactant.
[15] abbreviates: 113 DAT, 3.44 grams active/cm trunk diameter + 2.3% V/V surfactant.
Setting [16] is: 169 DAT, 0.86 grams active/cm trunk diameter + 2.3% V/V surfactant.
The mark [17] stands for this setting: 169 DAT, 1.7 grams active/cm trunk diameter + 2.3% V/V surfactant.
Setting [18] is: 169 DAT, 3.4 grams active/cm trunk diameter + 2.3% V/V surfactant.
[19] abbreviates: first fruit pest, treatment 2, applied when apple trees dormant, 1.72 grams active/cm trunk diameter + 2.3% V/V surfactant.
Where [20] appears, read: first fruit pest, treatment 3, applied when apple trees dormant, 1.72 grams active/cm trunk diameter + 2.3% V/V surfactant.
[21] abbreviates: first fruit pest, treatment 4, applied at the time of bud swell, 1.72 grams active/cm trunk diameter + 2.3% V/V surfactant.
[22] abbreviates: first fruit pest, treatment 6, foliar spray applied after petal fall, 4 oz pr/A, surfactant not given.
[23] abbreviates: treatment 2, applied when apple trees dormant, 1.72 grams active/cm trunk diameter + 2.3% V/V surfactant.
Setting [24] is: treatment 3, applied when apple trees dormant, 1.72 grams active/cm trunk diameter + 2.3% V/V surfactant.
[25] abbreviates: treatment 4, applied at the time of bud swell, 1.72 grams active/cm trunk diameter + 2.3% V/V surfactant.
[26] abbreviates: treatment 6, foliar spray applied after petal fall, 4 oz pr/A, surfactant not given.

Turning to `O=C1C2CC=CCC2C(=O)N1SC(Cl)(Cl)Cl` (centres unmarked) [Captan, N-trichtoromethylthiocyclohexene-1,2-dicarboximide], the systemic control activity entry with apple scab was “no systemic control activity”. Moreover, the “effectiveness against apple scab” value in the data set on apple scab (contact fungicide) was “effective against apple scab”.

As for `CCCC1COC(Cn2cncn2)(c2ccc(Cl)cc2Cl)O1` (centres unmarked) [Propiconazole + Surfactant, propiconazole], the “Apple Leaf scab incidence” value in data set [1] (setting [5]) was 18.78; in data set [1] (setting [6]) it was 13.38. The “Apple leaf % control” value is reported as 68.3% in data set [1] (setting [5]) and 36.3% in data set [1] (setting [6]). Moreover, the “Apple leaf scab severity” value is listed as 8.3 in data set [1] (setting [5]) and 4.63 in data set [1] (setting [6]). Moreover, the “Apple Leaf Phytotoxicity” value in the data set with apple trees [2] (setting [5]) and in the data set with apple trees [2] (setting [6]) was 0 in each case.

On to `C[C@@H]1CC(C)(C)c2cccc(NC(=O)c3cn(C)nc3C(F)F)c21` [3-(Difluoromethyl)-1-methyl-N-[(3R)-1,1,3-trimethyl-2,3-dihydroinden-4-yl]pyrazole-4-carboxamide], for which the “Apple Leaf scab incidence” value is 20 in data set [1] (setting [7]), 23 in data set [1] (setting [8]), 13.75 in data set [1] (setting [9]) and 13.75 in data set [1] (setting [10]). The “Apple leaf % control” value is 88.3% in data set [1] (setting [7]), 80% in data set [1] (setting [8]), 43.8% in data set [1] (setting [9]) and 46.3% in data set [1] (setting [10]). Also, the “Apple leaf scab severity” value is listed as 13.8 in data set [1] (setting [7]), 16.3 in data set [1] (setting [8]), 7 in data set [1] (setting [9]) and 4.5 in data set [1] (setting [10]). Further, the “activity against apple scab caused by Venturia inaequalis” value in data set [1] (combined with a surfactant and applied as a bark spray, as compared to metconazole and propiconazole) is “excellent activity”. Moreover, the “control of Fabraea leaf spot” value in the data set with Fabraea leaf spot is on record as “failed to provide adequate control”. Further, the “Apple Leaf Phytotoxicity” value with apple trees [2] (setting [7]), in the data set on apple trees [2] (setting [8]), in the data set on apple trees [2] (setting [9]) and in the data set with apple trees [2] (setting [10]) was 0 in each case. The “control of Alternaria leaf spot” value with Alternaria leaf spot is listed as “failed to provide adequate control”. For the same compound, the water solubility entry in the data set “Water solubility” was “low water solubility”. Besides, the Fruit pest incidence in data set [3] (setting [11]) is recorded as 10.25; in data set [3] (setting [12]), 0.33. Besides, the Fruit pest severity in data set [3] (setting [11]) was 0.638; in data set [3] (setting [12]) it was 0.183. Also, in data set [3] (setting [12]), the Leaf pest incidence is listed as 0.25. In data set [3] (setting [12]), the Leaf pest severity turned out to be 0.3. In addition, in the data set on apple trees [4] (setting [12]), the Phytotoxicity was 0.

As for `CC1(C)CCC(Cc2ccc(Cl)cc2)C1(O)Cn1cncn1` (centres unmarked) [Metconazole + Surfactant, metconazole], the “Apple Leaf scab incidence” value in data set [1] (setting [13]) is 12.5; in data set [1] (setting [14]), 18; in data set [1] (setting [15]), 11.25; in data set [1] (setting [16]), 18.88; in data set [1] (setting [17]) it was 15.5; in data set [1] (setting [18]) it was 7.25. In addition, the “Apple leaf % control” value in data set [1] (setting [13]) turned out to be 80%; in data set [1] (setting [14]), 68.8%; in data set [1] (setting [15]), 80%; in data set [1] (setting [16]), 31.3%; in data set [1] (setting [17]), 27.5%; in data set [1] (setting [18]), 62.5%. Further, the “Apple leaf scab severity” value in data set [1] (setting [13]) is given as 10; in data set [1] (setting [14]), 18.3; in data set [1] (setting [15]), 13.3; in data set [1] (setting [16]), 4.25; in data set [1] (setting [17]), 4.75; in data set [1] (setting [18]) it was 2.75. The “Apple Leaf Phytotoxicity” value in the data set with apple trees [2] (setting [13]), with apple trees [2] (setting [14]), with apple trees [2] (setting [15]), in the data set with apple trees [2] (setting [16]), in the data set on apple trees [2] (setting [17]) and in the data set with apple trees [2] (setting [18]) was 0 in each case. For the same compound, the Fruit pest incidence was 33.75 in data set [3] (setting [19]); 6.67 in data set [3] (setting [20]); 14.00 in data set [3] (setting [21]); 2.75 in data set [3] (setting [22]); 45.0 in data set [3] (setting [23]); 10.0 in data set [3] (setting [24]). Further, the Fruit pest incidence in data set [3] (setting [25]) is listed as 18.67; in data set [3] (setting [26]), 3.67. The Fruit pest severity came to 2.25 in data set [3] (setting [19]); 0.333 in data set [3] (setting [20]); 1.125 in data set [3] (setting [21]); 0.263 in data set [3] (setting [22]); 3.0 in data set [3] (setting [23]); 0.5 in data set [3] (setting [24]). In addition, the values for the Fruit pest severity in data set [3] (setting [25]) and in data set [3] (setting [26]) were 1.5 and 0.350, respectively. The Leaf pest incidence in data set [3] (setting [23]) amounted to 1.875; in data set [3] (setting [24]), 1.000; in data set [3] (setting [25]) it was 0.140; in data set [3] (setting [26]), 0.125. For the same compound, the Leaf pest severity turned out to be 5.0 in data set [3] (setting [23]), 1.7 in data set [3] (setting [24]), 2.0 in data set [3] (setting [25]) and 0.8 in data set [3] (setting [26]). Moreover, the Phytotoxicity in the data set with apple trees [4] (setting [23]), in the data set on apple trees [4] (setting [24]), with apple trees [4] (setting [25]) and in the data set on apple trees [4] (setting [26]) was 0 each time.

Values taken from patent US10051863B2, “Methods for apple scab control” (Valent U.S.A., Corporation, priority 2015, dated 2018).
